PubChem BioAssay (NCI)
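Cells were grown in 96-well plates and exposed to each compound for 48 hours at five concentrations; endpoints were interpolated linearly between bracketing concentrations, or set to the highest concentration if not reached. The concentration for 50% growth inhibition is given as GI50. TGI is the concentration that stops growth completely.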

What was measured:
Assay in all cases: NCI-60 cell line screen, 48 h
[1] = tested on: NCI-H23 lung
[2] = tested on: HOP-92 NSCLC
[3] = tested on: HOP-62 NSCLC
[4] = tested on: RXF 393 renal
[5] = tested on: SW-620 colon
[6] = tested on: UACC-257 melanoma
[7] = tested on: OVCAR-4 ovarian
[8] = tested on: COLO 205 colon
[9] = tested on: SK-MEL-5 melanoma
[10] = tested on: RPMI-8226 leukemia

Compound	TGI [1]	TGI [2]	TGI [3]	TGI [4]	TGI [5]	TGI [6]	TGI [7]	TGI [8]	TGI [9]	TGI [10]	GI50 [1]	GI50 [3]	GI50 [5]	GI50 [6]	GI50 [7]	GI50 [8]	GI50 [9]	GI50 [10]	GI50 [2]	GI50 [4]
CC1=C2CCCC2=C/C(=N/Nc2ccc([N+](=O)[O-])cc2[N+](=O)[O-])CC1	> 100 µM	> 100 µM	> 100 µM	> 100 µM	> 100 µM	> 100 µM	> 100 µM	> 100 µM	> 100 µM	> 100 µM										
Cc1cn2c(/C=C3\C(=O)Nc4ccc(O)cc43)c(-c3ccc(Cl)cc3)nc2s1	35.8 µM		30.3 µM		> 100 µM	> 100 µM	27.8 µM	81.1 µM	25.2 µM	> 100 µM	15.8 µM	15.3 µM	35.6 µM	21.3 µM	7.31 µM	20.8 µM	10.1 µM	34.5 µM		
CCSc1[nH]c(Nc2nc(-c3ccccc3)n(-c3ccccc3)n2)c(C(N)=O)c1C(N)=O	> 10 µM	> 10 µM	> 10 µM	> 10 µM	> 10 µM	> 10 µM	> 10 µM	> 10 µM	> 10 µM	> 10 µM										
CCN1CCN=c2c3cc(OC)ccc3n3cnc4ccc1c2c43	0.985 µM	6.32 µM	0.924 µM	1.05 µM	2.08 µM	2.05 µM	1.86 µM	0.606 µM	0.784 µM	0.558 µM										
O=c1[nH]cc(COCCO)c(=O)[nH]1	> 100 µM	> 100 µM	> 100 µM	> 100 µM	> 100 µM	> 100 µM	> 100 µM	> 100 µM	> 100 µM	> 100 µM										
C1CSCCSCCS1	> 100 µM	> 100 µM	> 100 µM	> 100 µM	> 100 µM	> 100 µM	> 100 µM	> 100 µM	> 100 µM	> 100 µM										
O=C1c2ccccc2C2(O)c3cc4ccccc4cc3OC12O (stereo not drawn)	> 100 µM	80.4 µM	> 100 µM	97.6 µM	> 100 µM	89.3 µM	> 100 µM	> 100 µM	86.9 µM	> 100 µM										
O=C(NCCCCN=c1cccccc1NCCCCNC(=O)OCc1ccccc1)OCc1ccccc1	48.8 µM	20.1 µM	39 µM	40.4 µM	41.7 µM	29.3 µM	57.5 µM		33.1 µM	32.8 µM										
O=C1CC(C[C@H](O)C2CCCCC2O)CC(=O)N1Cc1ccccc1 (stereo partly drawn)	> 100 µM		> 100 µM	> 100 µM	> 100 µM	> 100 µM	> 100 µM	> 100 µM	> 100 µM											
O=c1c2ccccc2sc2cccc(NCCCN3CCN(CCCNc4cccc5sc6ccccc6c(=O)c45)CC3)c12	> 100 µM		> 100 µM	> 100 µM	> 100 µM	> 100 µM	> 100 µM	> 100 µM	> 100 µM	> 100 µM										
COc1cccc2c1C(=O)c1c(O)c3c(c(O)c1C2=O)CC(O)(/C(C)=N/NC(=O)CCC(=O)N/N=C(\C)C1(O)Cc2c(O)c4c(c(O)c2C(OC2CC(N)C(O)C(C)O2)C1)C(=O)c1c(OC)cccc1C4=O)CC3OC1CC(N)C(O)C(C)O1 (stereo not drawn)	1.43 µM		1.57 µM	1.35 µM	5.36 µM	3.28 µM	> 21.4 µM	0.795 µM		4.17 µM	0.186 µM	0.19 µM	0.193 µM	0.781 µM	0.885 µM	0.157 µM		0.209 µM	0.438 µM	0.376 µM
CCOc1ccc2c(c1)[n+]([O-])c(-c1ccccc1Cl)c(N)[n+]2[O-]	> 100 µM	> 100 µM	> 100 µM	> 100 µM	> 100 µM	> 100 µM	> 100 µM	> 100 µM	> 100 µM											
O=c1cc2oc3cc(O)c(O)cc3c(-c3ccccc3O)c-2cc1O	39.1 µM	> 100 µM	> 100 µM	> 100 µM	> 100 µM	> 100 µM	> 100 µM	> 100 µM	> 100 µM		3.88 µM	5.62 µM	32.7 µM	20.4 µM	11.5 µM	36.3 µM	19.4 µM		30.3 µM	6.5 µM
O=C(O)CSc1n[nH]c(-c2ccccc2)n1	> 100 µM		> 100 µM	> 100 µM	> 100 µM		> 100 µM	> 100 µM	> 100 µM	> 100 µM										
CCOc1ccc(N2C(=O)/C(=C/c3ccc(N(CCC#N)CCC#N)cc3)N=C2c2cc([N+](=O)[O-])ccc2Cl)cc1	> 100 µM		> 100 µM	> 100 µM	55.9 µM		> 100 µM	44.1 µM	34.6 µM	> 100 µM										
CCOC(=O)NC(=O)c1cn(CCOC(=O)NCCCCCCNC(=O)OCCn2cc(C(=O)NC(=O)OCC)c(=O)[nH]c2=O)c(=O)[nH]c1=O			> 100 µM	> 100 µM	> 100 µM	> 100 µM	> 100 µM	> 100 µM	> 100 µM	> 100 µM										
CCOC(=O)C(C)(C)Oc1ccc2c(C)c(-c3ccc(Cl)cc3)c(=O)oc2c1	> 100 µM		> 100 µM	> 100 µM	> 100 µM	> 100 µM	> 100 µM	> 100 µM	35 µM	> 100 µM										
CCOc1ccc2nc(S/C(=C/C=C(C#N)C#N)c3ccc(C)cc3)sc2c1	97.3 µM		> 100 µM	46.7 µM	35.8 µM	> 100 µM	> 100 µM	> 100 µM	57.4 µM		35.6 µM	44.9 µM	5.35 µM	> 100 µM	94.4 µM	25.8 µM	22.1 µM			19.9 µM
CCC1C2C=CC(CC2)N1S(=O)(=O)c1ccc(C)cc1 (stereo not drawn)			76.3 µM		50.3 µM	93.5 µM	> 100 µM	54.5 µM	36.1 µM	42.3 µM										
O=C(Nc1cc(Cl)ccc1Cl)c1cc2cccc(Cl)c2oc1=O	> 100 µM		> 100 µM	> 100 µM	> 100 µM	> 100 µM		> 100 µM	> 100 µM	> 100 µM										
CC(=O)n1c2c(c(=O)n1-c1ccccc1)S(=O)CCC2 (stereo not drawn)	> 100 µM		28.2 µM	> 68.4 µM	> 100 µM	> 100 µM	44.4 µM	> 100 µM	> 100 µM	27.9 µM										

Compound	TGI [1]	TGI [2]	TGI [3]	TGI [4]	TGI [5]	TGI [6]	TGI [7]	TGI [8]	TGI [9]	TGI [10]	GI50 [1]	GI50 [3]	GI50 [5]	GI50 [6]	GI50 [7]	GI50 [8]	GI50 [9]	GI50 [10]	GI50 [2]	GI50 [4]
Cc1ccc(Cn2c(C)nc3c2C(=O)c2ccccc2C3=O)cc1	20.5 µM		42.1 µM	28.7 µM	> 100 µM	60.8 µM	63.4 µM	> 100 µM	19.5 µM											
O=C(NC(=O)c1cn(CCNCCO)c(=O)[nH]c1=O)OCc1ccccc1	> 100 µM	> 100 µM	> 100 µM	> 100 µM	> 100 µM		> 100 µM	> 100 µM	> 100 µM	> 100 µM										
O=C(N/N=C1/C(=O)N(c2ccc(Cl)cc2Cl)C(=O)C(=O)C1c1nc2ccccc2o1)c1ccccc1O (stereo not drawn)	84.3 µM	93.5 µM	75.2 µM		> 100 µM			> 100 µM	40.2 µM	> 100 µM										
CCN(CC)CCOc1ccc(/C=C2\CC3C4CC=C5C[C@@H](O)CC[C@]5(C)C4CC[C@]3(C)C2=O)cc1OC (stereo partly drawn)	> 60.6 µM	32.2 µM	10.9 µM	21.5 µM	> 20.5 µM	5.5 µM	45.9 µM		22.6 µM		7.71 µM	3.94 µM	2.54 µM	2.3 µM	18.8 µM		6.58 µM		1.45 µM	5.64 µM
c1ccc(SC2CCSc3ccccc3C2Sc2ccccc2)cc1 (stereo not drawn)		> 100 µM	> 100 µM		> 100 µM	> 100 µM	> 100 µM		> 100 µM	> 100 µM										
CCc1c(OC(C)=O)c2c(NC3OC(COC(C)=O)C(OC(C)=O)C(OC(C)=O)C3OC(C)=O)nc(OC)nc2oc1=O (stereo not drawn)	> 100 µM		> 100 µM	> 100 µM	> 100 µM	> 100 µM	> 100 µM	> 100 µM	> 100 µM	> 100 µM										
O=C(CSc1nnc(-c2ccc(N=Cc3ccc(Cl)cc3)cc2)o1)Nc1ccc(Cl)cc1	> 100 µM		> 100 µM	> 100 µM	> 100 µM	> 100 µM	> 100 µM	> 100 µM	> 100 µM	> 100 µM										
Cc1ccc(S(=O)(=O)N/N=C/c2oc(-c3ccncc3)c(-c3ccncc3)c2[N+](=O)[O-])cc1	> 100 µM		> 100 µM	> 100 µM	> 100 µM	> 100 µM	> 100 µM	> 100 µM	> 100 µM											
O=C(O)[C@H](NS(=O)(=O)c1ccc2ccccc2c1)c1ccccc1	> 100 µM	> 100 µM		> 100 µM		> 100 µM	> 100 µM	> 100 µM		> 100 µM										
Nc1nc(N)c(N=Nc2ccc([As](=O)(O)O)cc2)c(=O)[nH]1	> 100 µM		> 100 µM	> 100 µM	> 100 µM	> 100 µM	> 100 µM	> 100 µM	> 100 µM	> 100 µM										
Cc1ccc(NC(=O)C2C(=O)N(c3ccc(C)c(C)c3)C(=O)C2N=N)cc1C (stereo not drawn)	> 100 µM	> 100 µM	> 100 µM	> 100 µM	> 100 µM	> 100 µM	> 100 µM	> 100 µM	> 100 µM											
CCc1cccc(C)c1NC(=O)C(=O)Cc1nc2ccccc2o1	> 100 µM	> 100 µM	> 100 µM	> 100 µM	> 100 µM	> 100 µM	> 100 µM	> 100 µM		> 100 µM										
CCOC(=O)C1(c2ccccc2)CCC(=O)CC1	> 100 µM	> 100 µM	> 100 µM	> 100 µM	> 100 µM	> 100 µM	> 100 µM	> 100 µM	> 100 µM											
CC(=C\c1ccccc1)/C=C(\C#N)C(N)=O			> 10 µM	> 10 µM	> 10 µM			> 10 µM	> 10 µM											
COc1ccc(-c2cc(-c3ccccc3)c(C#N)c(=O)n2C2OC(CO)C(O)C(O)C2O)cc1 (stereo not drawn)	> 100 µM		> 100 µM	> 100 µM	> 100 µM	> 100 µM	> 100 µM	> 100 µM	> 100 µM	> 100 µM										
COc1c(OC)c(OC)c(C(=O)/C=C/c2ccccc2)c(OC)c1OC	26.8 µM	17.9 µM			31 µM	34.3 µM	30.7 µM	31.9 µM	26.3 µM	20.3 µM										
Cc1ccc(Cl)cc1Nc1nc(C(F)(F)F)ccc1C(=O)N1CCN(c2cccc(Cl)c2)CC1	> 100 µM		> 100 µM		> 100 µM	> 100 µM	> 100 µM	> 100 µM	> 100 µM	> 100 µM	> 100 µM	> 100 µM	> 100 µM	> 100 µM	> 100 µM	> 100 µM	> 100 µM	33.2 µM		
C[C@H]1NC(=O)C2CCCCN2C(=O)CN(C)C(=O)CNC(=O)C2CCCCN2C(=O)[C@@H](NC(=O)c2nc3ccccc3cc2O)[C@@H](C)NC(=O)C2CCCCN2C(=O)CN(C)C(=O)CNC(=O)[C@@H]2CCCCN2C(=O)C1NC(=O)c1nc2ccccc2cc1O (stereo partly drawn)	0.69 µM		0.66 µM	0.199 µM	12.3 µM	0.537 µM	5.48 µM	0.641 µM		0.764 µM										
COC1C(O)=C2C(=O)O/C(C)=C/C=C/C=C/C=C\CC(c3ccccc3)NC(=O)\C=C/C=C\C=C\C=C\[C@@]2(C)[C@@H]1O (stereo partly drawn)		< 0.0199 µM	0.146 µM	0.0962 µM	0.139 µM	0.165 µM	1.85 µM	0.0564 µM	0.199 µM	0.0445 µM										
COc1ccc(NC(=O)/C(N=O)=C(/C)O)cc1	> 100 µM	> 100 µM	> 100 µM	> 100 µM	30 µM	> 100 µM			> 100 µM	> 100 µM										
